These are literature values, as cited in EP0163237A2, “Di- and tri-peptidal renin inhibitors” (Merck & Co., Inc., priority 1984, dated 1985).

The data set concerns hog renin. Particulars: after the injection of hog renin into nephrectomized rats.

Where a SMILES comes first, the peptide text is derived from it. [ ]: non-standard residue; d: D form. The star is where a group is joined. Sta = CC(C)C[C@H](N)[C@@H](O)CC(=O)O; Isovaleryl = CC(C)CC(=O)*

For `CC(C)CC(=O)N[C@H](C(=O)N[C@H](C(=O)N[C@@H](CC(C)C)[C@@H](O)CC(=O)N[C@@H](C)C(=O)N[C@@H](CC(C)C)[C@@H](O)CC(=O)O)C(C)C)C(C)C` [pepstatin] (Isovaleryl-VV[Sta]A[Sta]-OH), the “blood pressure in vivo” value is “reduce blood pressure”.
